Source: the Biogen ADME set (Fang et al. 2023)
Converted amounts (≈) assume the structure as drawn.

Settings: for aqueous solubility: pH 6.8

| SMILES | MDR1-MDCK efflux ratio | intrinsic clearance, human liver microsomes [mL/min/kg] | intrinsic clearance, rat liver microsomes [mL/min/kg] | aqueous solubility [µg/mL] | fraction unbound, human plasma |
| --- | --- | --- | --- | --- | --- |
| CC(C)(O)CCn1cc2cc(NC(=O)c3ccn(C(F)F)n3)c(OCC3COC3)cc2n1 | 11.8 | ≤ 4.74 | 13.3 |  |  |
| COc1cc(-c2ccc(C)s2)cc2c1OCCN(c1noc(C)n1)C2 |  | 57.4 | 940 | 3.01 (≈ 8.42 µM) |  |
| c1ccc(-c2cn(C3CNC3)nn2)cc1 |  | ≤ 4.74 | 28.6 |  |  |
| CC(C)c1nsc(N2CCC(Nc3cccnc3)CC2)n1 | 0.816 | 26.3 | 403 |  |  |
| CCc1nc(C(N)=O)c(Nc2ccc(N3CCC(N4CCN(C)CC4)CC3)c(OC)c2)nc1NC1CCOCC1 | 133 | 15 | 14.7 | 36.3 (≈ 65.7 µM) |  |
| CCN(C(=O)N1CCC(OC2CCOCC2)CC1)C(C)C | 0.763 | 21.6 | 155 | 56.1 (≈ 188 µM) |  |
| CNc1nc(Nc2cnn([C@H]3CCN(C4COC4)C[C@@H]3F)c2Cl)ncc1C(F)(F)F | 1.31 | 10.6 | 60.9 |  |  |
| Cn1cncc1CCNC(=O)[C@H]1CC1(C)C | 8.23 | ≤ 4.74 | ≤ 10.7 | 28.8 (≈ 130 µM) |  |
| CC(=O)c1c(C)c2cnc(Nc3ccc(N4CCNCC4)cn3)nc2n(C2CCCC2)c1=O | 63.1 | 12.8 | 34.7 | 46.2 (≈ 103 µM) |  |
| CC(C)c1nccn1Cc1nc(-c2cccs2)no1 |  | 13.6 | 1930 |  |  |
| COc1ccc(COc2ccc(Cc3cnc(N)nc3N)cc2OC)cc1 | 11 | 13.3 | 249 |  |  |
| Cc1cc(C)nc(SCC(=O)N2c3ccccc3C(C)(c3ccccc3)CC2(C)C)n1 (stereo not given) |  | 2360 | 3130 |  |  |
| Cc1ccccc1OCCCNc1cc(Cn2c(C)nc3ccccc32)nc(N)n1 | 21.4 | 717 | 2130 | 14.4 (≈ 35.9 µM) |  |
| CCN(CCO)Cc1nc2cc(OC)c(OC)cc2c(=O)[nH]1 | 31.2 | ≤ 4.74 | ≤ 10.7 |  |  |
| Clc1ccc2c(Oc3cccnc3)ncnc2c1 | 0.654 | 16.7 | 47 | 39.7 (≈ 154 µM) |  |
| CC(C)c1nnc(CN2CCN(c3nccs3)CC2)o1 | 0.971 | ≤ 4.74 | 122 | 52.1 (≈ 177 µM) |  |
| O=c1c2sccc2nc2n1CCN(Cc1ccc(F)cc1F)CC2 | 0.519 | 57.9 | 1460 |  |  |
| O=C(O)CCC(=O)Nc1ccccc1-c1nc2ccccc2[nH]c1=O | 0.345 | ≤ 4.74 | ≤ 10.7 | 60.7 (≈ 180 µM) |  |
| NC(=O)COc1ncnc2ccccc12 | 1.27 | ≤ 4.74 | ≤ 10.7 | 47.9 (≈ 235 µM) |  |
| Cc1cc2nc(CCC(=O)N3CCC(c4ccc(C(=O)N(C)C)c(N)n4)CC3)[nH]c2cc1C | 36.2 | 107 | 320 | 39.7 (≈ 88.4 µM) |  |
| CN1CCC(NC(=O)COc2ccc(C#N)cc2)CC1 | 2.44 | ≤ 4.74 | ≤ 10.7 | 35.2 (≈ 129 µM) |  |
| CC(=O)NCCNc1cc(Cl)nn2c(-c3cccc(S(=O)(=O)N(C)C)c3)c(C)nc12 | 67.7 | 228 | 797 | 45.8 (≈ 102 µM) | 0.048 |
| CN1CC(=O)N(CCCC(=O)Nc2cccc(C#Cc3cccs3)c2)C1=O | 4.28 | 19.7 | 738 | 43.2 (≈ 113 µM) |  |
| CCc1ccc2nc(C)cc(C(=O)N3CC(c4cccnc4)C3)c2c1 | 11.2 | 143 | 656 | 39.3 (≈ 119 µM) |  |
| CON(C)C(=O)c1cc2ccc(C(C)(C)C)cc2[nH]1 | 0.438 | 55 | 344 | 1.02 (≈ 3.92 µM) |  |
| Cc1ccc(OCC(=O)Nc2cc(C)on2)nc1 |  | ≤ 4.74 | ≤ 10.7 |  |  |
